In the supplement of paper PMC10307832:

Experiments:
Assay in all cases: relative viability (nuclei count vs DMSO), 5 days (fraction); higher = more cells survive
Fedratinib + AZD7762 = compound: Cc1cnc(Nc2ccc(OCCN3CCCC3)cc2)nc1Nc1cccc(S(=O)(=O)NC(C)(C)C)c1 [Fedratinib] + NC(=O)Nc1cc(-c2cccc(F)c2)sc1C(=O)N[C@H]1CCCNC1 [AZD7762] (partner 0.2 µM)
How it was run: (§1)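 Relative viability equals treated-well nuclei counts divided by vehicle-well nuclei counts. Counts came from 4× images of lung cancer cell lines grown in 1536-well plates for 5 days after pin-tool dosing on the day after seeding. Dosing used one drug alone or a fixed anchor-drug dose plus five library-drug doses (not always all listed) in √10 steps, and values are medians of duplicate plates.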

GW-2580 + Tozasertib = compound: COC1=CC=C(C=C1)COC2=C(C=C(C=C2)CC3=CN=C(N=C3N)N)OC [GW-2580] + Cc1cc(Nc2cc(N3CCN(C)CC3)nc(Sc3ccc(NC(=O)C4CC4)cc3)n2)n[nH]1 [Tozasertib] (partner 0.1 µM)
How it was run: as §1

GW-2580 + Luminespib = compound: COC1=CC=C(C=C1)COC2=C(C=C(C=C2)CC3=CN=C(N=C3N)N)OC [GW-2580] + CCNC(=O)c1noc(-c2cc(C(C)C)c(O)cc2O)c1-c1ccc(CN2CCOCC2)cc1 [Luminespib] (partner 0.01 µM)
How it was run: as §1

Fedratinib + Pictilisib = compound: Cc1cnc(Nc2ccc(OCCN3CCCC3)cc2)nc1Nc1cccc(S(=O)(=O)NC(C)(C)C)c1 [Fedratinib] + CS(=O)(=O)N1CCN(Cc2cc3nc(-c4cccc5[nH]ncc45)nc(N4CCOCC4)c3s2)CC1 [Pictilisib] (partner 1 µM)
How it was run: as §1

GW-2580 + Olaparib = compound: COC1=CC=C(C=C1)COC2=C(C=C(C=C2)CC3=CN=C(N=C3N)N)OC [GW-2580] + O=C(c1cc(Cc2n[nH]c(=O)c3ccccc23)ccc1F)N1CCN(C(=O)C2CC2)CC1 [Olaparib] (partner 8 µM)
How it was run: as §1

| Cell Line | relative viability (Fedratinib + AZD7762; first compound 0.1 µM) | relative viability (Fedratinib + AZD7762; first compound 0.3162 µM) | relative viability (Fedratinib + AZD7762; first compound 1 µM) | relative viability (GW-2580 + Tozasertib; first compound 0.08 µM) | relative viability (GW-2580 + Tozasertib; first compound 0.8 µM) | relative viability (GW-2580 + Tozasertib; first compound 2.53 µM) | relative viability (GW-2580 + Tozasertib; first compound 8 µM) | relative viability (GW-2580 + Luminespib; first compound 0.08 µM) | relative viability (GW-2580 + Luminespib; first compound 0.8 µM) | relative viability (GW-2580 + Luminespib; first compound 2.53 µM) | relative viability (GW-2580 + Luminespib; first compound 8 µM) | relative viability (Fedratinib + Pictilisib; first compound 0.1 µM) | relative viability (Fedratinib + Pictilisib; first compound 0.3162 µM) | relative viability (Fedratinib + Pictilisib; first compound 1 µM) | relative viability (GW-2580 + Olaparib; first compound 0.08 µM) | relative viability (GW-2580 + Olaparib; first compound 0.8 µM) | relative viability (GW-2580 + Olaparib; first compound 2.53 µM) | relative viability (GW-2580 + Olaparib; first compound 8 µM) |
| --- | --- | --- | --- | --- | --- | --- | --- | --- | --- | --- | --- | --- | --- | --- | --- | --- | --- | --- |
| HOP-62 | 0.734 | 0.566 | 0.555 | 0.404 | 0.374 | 0.333 | 0.326 | 1.02 | 1.04 | 0.91 | 0.917 | 0.809 | 0.709 | 0.531 | 0.512 | 0.809 | 0.179 | 0.402 |
| HARA | 0.429 | 0.28 | 0.23 | 0.111 | 0.127 | 0.0978 | 0.0792 | 0.882 | 0.801 | 0.389 | 0.596 | 0.348 | 0.422 | 0.306 | 0.624 | 1.19 | 0.895 | 0.726 |
| NCI-H838 | 0.961 | 0.913 | 0.906 | 0.291 | 0.341 | 0.295 | 0.248 | 0.266 | 0.31 | 0.376 | 0.338 | 0.449 | 0.47 | 0.213 | 0.906 | 0.938 | 0.838 | 0.94 |
| NCI-H1755 | 0.422 | 0.47 | 0.43 | 0.545 | 0.576 | 0.523 | 0.538 | 0.697 | 0.401 | 0.332 | 0.45 | 0.385 | 0.458 | 0.399 | 0.984 | 0.905 | 0.737 | 0.785 |
| NCI-H322M | 0.596 | 0.591 | 0.414 | 0.491 | 0.553 | 0.476 | 0.593 | 0.868 | 0.887 | 0.805 | 0.903 | 0.5 | 0.503 | 0.406 | 0.76 | 0.956 | 0.753 | 0.626 |
| NCI-H3122 | 1.07 | 1.02 | 0.912 | 0.549 | 0.421 | 0.468 | 0.362 | 0.0808 | 0.0609 | 0.0868 | 0.0798 | 0.621 | 0.551 | 0.152 | 0.682 | 0.739 | 0.675 | 0.648 |
| NCI-H2087 | 1.39 | 1.37 | 1.42 | 0.242 | 0.263 | 0.249 | 0.212 | 0.133 | 0.179 | 0.174 | 0.164 | 0.705 | 1 | 0.27 | 0.668 | 0.934 | 0.608 | 0.542 |
| LC-2-ad | 0.829 | 0.863 | 0.818 | 0.501 | 0.412 | 0.405 | 0.475 | 1.03 | 1.07 | 1.12 | 1.02 | 0.422 | 0.531 | 0.115 | 0.723 | 0.727 | 0.702 | 0.722 |
| NCI-H1915 | 0.754 | 0.66 | 0.67 | 0.469 | 0.44 | 0.489 | 0.387 | 0.852 | 1.12 | 0.429 | 0.917 | 0.927 | 0.9 | 0.405 | 0.222 | 0.233 | 0.293 | 0.259 |
| NCI-H1793 | 0.324 | 0.402 | 0.326 | 0.379 | 0.3 | 0.281 | 0.307 | 0.187 | 0.238 | 0.162 | 0.151 | 0.34 | 0.305 | 0.306 | 0.892 | 1.02 | 0.822 | 0.804 |
| RERF-LC-KJ | 0.895 | 0.918 | 0.953 | 0.474 | 0.593 | 0.508 | 0.367 | 1.23 | 1.56 | 1.35 | 1.14 | 0.431 | 0.545 | 0.462 | 1 | 1.04 | 0.888 | 0.861 |
| LXF-289 | 1.08 | 1.07 | 0.966 | 0.191 | 0.188 | 0.161 | 0.157 | 0.719 | 0.732 | 0.684 | 0.616 | 0.811 | 0.747 | 0.694 | 1.24 | 1.14 | 1.06 | 1.19 |
| PC-14 | 0.275 | 0.349 | 0.215 | 0.665 | 0.68 | 0.514 | 0.468 | 0.144 | 0.129 | 0.175 | 0.131 | 0.465 | 0.606 | 0.438 | 0.243 | 0.247 | 0.242 | 0.295 |
| NCI-H650 | 1.17 | 0.933 | 0.755 | 0.721 | 0.743 | 0.669 | 0.589 | 0.872 | 0.857 | 0.676 | 0.618 |  | 0.701 | 0.727 | 0.373 | 0.379 | 0.364 | 0.472 |
| NCI-H1666 | 0.751 | 0.836 | 0.807 | 0.675 | 0.661 | 0.581 | 0.592 | 0.984 | 1.09 | 0.918 | 0.928 | 0.409 | 0.38 | 0.224 | 0.758 | 0.757 | 0.794 | 0.737 |
| NCI-H2085 | 0.952 | 0.925 | 0.928 | 0.698 | 0.8 | 0.667 | 0.748 | 0.529 | 0.364 | 0.436 | 0.411 | 0.361 | 0.442 | 0.375 | 0.741 | 0.784 | 0.84 | 0.757 |
| NCI-H1734 | 0.709 | 0.512 | 0.515 | 0.25 | 0.267 | 0.277 | 0.252 | 0.169 | 0.171 | 0.193 | 0.19 | 0.443 | 0.479 | 0.142 | 0.65 | 0.589 | 0.585 | 0.636 |
